Earlier results, collected in US20170209576A1, “DELIVERY COMPOSITIONS AND METHODS” (REGENTS OF THE UNIVERSITY OF MINNESOTA, priority 2014, published 2017).

Legend:
[1] = micropipette techniques
[2] = aqueous solution

Row | critical micelle concentration (CMC) [2] [µM] | pKa of terminal amine group | Compound | rate of adsorption of monomers into the outer bilayer leaflet [1] [s⁻¹]
1 | 4 | – | CCCCCCCCCCCCCCCC(=O)OC[C@@H](O)COP(=O)([O-])OCC[N+](C)(C)C [MPPC, monopalmitoyl phosphatidyl choline] | 0.2
2 | – | 9.8 | CCCCCCCCCCCCCCCC(=O)OCC(COP(=O)(O)OCCN)OC(=O)CCCCCCCCCCCCCCC (stereo not shown) [DPPE, dipalmitoylphosphatidylethanolamine] | –
3 | 5.8 | – | 1,2-Distearoyl-sn-glycero-3-phosphoethanolamine (DSPE)-PEG^2000 [DSPE-PEG^2000] | –
